Values after ≈ are worked out from the molar mass of the structure shown.
Legend:
OVCAR-4 = test: NCI-60 DTP human tumor cell line screening; format: cell-based; settings: Ovarian cancer OVCAR-4
MCF-7 = test: NCI-60 DTP human tumor cell line screening; format: cell-based
MDA-MB-231/ATCC = test: NCI-60 DTP human tumor cell line screening; format: cell-based; settings: Breast cancer MDA-MB-231/ATCC
MOLT-4 = test: NCI-60 DTP human tumor cell line screening; format: cell-based; settings: Leukemia MOLT-4
ACHN = test: NCI-60 DTP human tumor cell line screening; format: cell-based; settings: Renal cancer ACHN
HCC-2998 = test: NCI-60 DTP human tumor cell line screening; format: cell-based; settings: Colon cancer HCC-2998
T-47D = test: NCI-60 DTP human tumor cell line screening; format: cell-based; settings: Breast cancer T-47D
SK-MEL-28 = test: NCI-60 DTP human tumor cell line screening; format: cell-based; settings: Melanoma SK-MEL-28
NCI-H322M = test: NCI-60 DTP human tumor cell line screening; format: cell-based; settings: Non-small cell lung cancer NCI-H322M
SW-620 = test: NCI-60 DTP human tumor cell line screening; format: cell-based
HOP-62 = test: NCI-60 DTP human tumor cell line screening; format: cell-based; settings: Non-small cell lung cancer HOP-62
M-14 = test: NCI-60 DTP human tumor cell line screening; format: cell-based; settings: Melanoma M-14
UACC-62 = test: NCI-60 DTP human tumor cell line screening; format: cell-based; settings: Melanoma UACC-62
EKVX = test: NCI-60 DTP human tumor cell line screening; format: cell-based; settings: Non-small cell lung cancer EKVX
SF-539 = test: NCI-60 DTP human tumor cell line screening; format: cell-based; settings: CNS cancer SF-539
HCT-15 = test: NCI-60 DTP human tumor cell line screening; format: cell-based; settings: Colon cancer HCT-15
U251 = test: NCI-60 DTP human tumor cell line screening; format: cell-based; settings: CNS cancer U251
KM12 = test: NCI-60 DTP human tumor cell line screening; format: cell-based
CCRF-CEM = test: NCI-60 DTP human tumor cell line screening; format: cell-based; settings: Leukemia CCRF-CEM
MDA-MB-468 = test: NCI-60 DTP human tumor cell line screening; format: cell-based
MALME-3M = test: NCI-60 DTP human tumor cell line screening; format: cell-based; settings: Melanoma MALME-3M
UO-31 = test: NCI-60 DTP human tumor cell line screening; format: cell-based; settings: Renal cancer UO-31
SK-MEL-2 = test: NCI-60 DTP human tumor cell line screening; format: cell-based; settings: Melanoma SK-MEL-2
RPMI-8226 = test: NCI-60 DTP human tumor cell line screening; format: cell-based; settings: Leukemia RPMI-8226
NCI-H460 = test: NCI-60 DTP human tumor cell line screening; format: cell-based
TK-10 = test: NCI-60 DTP human tumor cell line screening; format: cell-based
SNB-19 = test: NCI-60 DTP human tumor cell line screening; format: cell-based; settings: CNS cancer SNB-19
[1] = system: neonatal human dermal fibroblasts (ATCC PCS-201-010); test: Cytotoxic activity, fibroblast proliferation (sulforhodamine B); format: cell-based
Experimental: Passage for normal neonatal human dermal fibroblasts (ATCC PCS-201-010, lot 58243223) were grown in DMEM with 5 % calf serum (Hyclone). For the experiment, cells were plated in DMEM/5 % serum at 2,000 cells/well in 96 well plates (plate 598) and were exposed to test materials for 96 h. MAP and bFGF were used as the positive controls and water, 1, 0.5, and 0.25 % DMSO were used as the negative controls. Plate growth was stopped and cells were stained with a sulforhodamine B dye. The dye was then dissolved and a colorimetric signal proportional to total cell/protein count was quantified with the BioRad microplate spectrophotometer 3550-UV at 570 nm with background subtraction at 660 nm and analyzed with Microplate Manager v.2 software for Macintosh (BioRad). Error bars represent standard errors of the mean (SEM). P values representing statistical significance were calculated using the t test.

P. acnes ATCC 11827 = test: Antibacterial activity, MIC in broth serial dilution
Experimental: Compounds were tested at serial dilutions in bacterial broth starting at 100 μg/cm^3 (final concentration). P. acnes (ATCC 11827, lot 419697) was grown in thioglycollate nutrient broth (Hardy Diagnostics K29) for 72 h at 33 °C, then inoculated at the density equivalent to 0.5 McFarland standard and incubated with the test materials for another 72 h in an anaerobic environment. […] At the end of the incubation the MIC was assessed optically as the lowest concentration of a test material which caused no bacteria growth [34]. This optical assessment was further confirmed by measuring the absorbance at 655 nm with the BioRad 3550-UV microplate reader. The MIC was defined as at least 50 % inhibition of the increase of OD.

NC(=NS(=O)(=O)c1ccccc1Cl)c1ccc2ccccc2n1 [Compound 15, N′-(2-Chlorophenylsulfonyl)quinoline-2-carboximidamide]
GI50 (OVCAR-4; Homo sapiens): 9.15 µM
TGI (OVCAR-4): 9.53 µM
TGI (MCF-7; Breast cancer MCF-7): ^c (Determined TGI values were >100 μM)
inhibition at 10 µM (MCF-7; Homo sapiens, MCF7, read-out: Growth inhibition ΔGI): 15.7%
GI50 (MCF-7; Homo sapiens, MCF7, Breast cancer MCF-7): 3.28 µM
TGI (MDA-MB-231/ATCC): ^c (Determined TGI values were >100 μM)
GI50 (MDA-MB-231/ATCC; Homo sapiens): 13 µM
GI50 (MOLT-4; Homo sapiens): 5.91 µM
TGI (MOLT-4): ^c (Determined TGI values were >100 μM)
GI50 (ACHN; Homo sapiens): 7.19 µM
TGI (ACHN): 13.10 µM
TGI (HCC-2998): 59.40 µM
GI50 (HCC-2998; Homo sapiens): 9.63 µM
TGI (T-47D): ^c (Determined TGI values were >100 μM)
GI50 (T-47D; Homo sapiens, T47D): 7.04 µM
GI50 (SK-MEL-28; Homo sapiens): 5.45 µM
TGI (SK-MEL-28): 12.00 µM
GI50 (NCI-H322M; Homo sapiens): 5.19 µM
TGI (NCI-H322M): ^c (Determined TGI values were >100 μM)
TGI (SW-620; Colon cancer SW-620): ^c (Determined TGI values were >100 μM)
inhibition at 10 µM (SW-620; Homo sapiens, SW-620, read-out: Growth inhibition ΔGI): 24.7%
GI50 (SW-620; Homo sapiens, Colon cancer SW-620): 3.45 µM
GI50 (HOP-62; Homo sapiens): 5.37 µM
TGI (HOP-62): ^c (Determined TGI values were >100 μM)
GI50 (M-14; Homo sapiens, M14): 3.61 µM
TGI (M-14): ^c (Determined TGI values were >100 μM)
GI50 (UACC-62; Homo sapiens): 6.07 µM
TGI (UACC-62): ^c (Determined TGI values were >100 μM)
GI50 (EKVX; Homo sapiens): 8.75 µM
TGI (EKVX): ^c (Determined TGI values were >100 μM)
TGI (SF-539): ^c (Determined TGI values were >100 μM)
GI50 (SF-539; Homo sapiens): 4.19 µM
TGI (HCT-15): ^c (Determined TGI values were >100 μM)
GI50 (HCT-15; Homo sapiens): 4.23 µM
TGI (U251): ^c (Determined TGI values were >100 μM)
GI50 (U251; Homo sapiens, U-251): 4.48 µM
TGI (KM12; Colon cancer KM12): ^c (Determined TGI values were >100 μM)
inhibition at 10 µM (KM12; Homo sapiens, KM12, read-out: Growth inhibition ΔGI): 23%
GI50 (KM12; Homo sapiens, Colon cancer KM12): 3.29 µM
GI50 (CCRF-CEM; Homo sapiens): 3.65 µM
TGI (CCRF-CEM): ^c (Determined TGI values were >100 μM)
TGI (MDA-MB-468; Breast cancer MDA-MB-468): 6.19 µM
inhibition at 10 µM (MDA-MB-468; Homo sapiens, MDA-MB-468, read-out: Growth inhibition ΔGI): 42.2%
GI50 (MDA-MB-468; Homo sapiens, Breast cancer MDA-MB-468): 2.01 µM
GI50 (MALME-3M; Homo sapiens): 5.42 µM
TGI (MALME-3M): ^c (Determined TGI values were >100 μM)
GI50 (UO-31; Homo sapiens): 7.26 µM
TGI (UO-31): 48.50 µM
GI50 (SK-MEL-2; Homo sapiens): 3.4 µM
TGI (SK-MEL-2): ^c (Determined TGI values were >100 μM)
GI50 (RPMI-8226; Homo sapiens): 5.27 µM
TGI (RPMI-8226): ^c (Determined TGI values were >100 μM)
inhibition at 10 µM (NCI-H460; Homo sapiens, NCI-H460, read-out: Growth inhibition ΔGI): 19.6%
GI50 (NCI-H460; Homo sapiens, Non-small cell lung cancer NCI-H460): 4.02 µM
TGI (NCI-H460; Non-small cell lung cancer NCI-H460): ^c (Determined TGI values were >100 μM)
inhibition at 10 µM (TK-10; Homo sapiens, TK-10, read-out: Growth inhibition ΔGI): 21.7%
GI50 (TK-10; Homo sapiens, Renal cancer TK-10): 6.02 µM
TGI (TK-10; Renal cancer TK-10): 7.08 µM
TGI (SNB-19): ^c (Determined TGI values were >100 μM)
GI50 (SNB-19; Homo sapiens): 5.61 µM
growth inhibitory activity ([1]; 6.25 μg/cm^3): 70%
cytotoxic activity on fibroblast proliferation ([1]; 96 h, 6.25–100 μg/cm^3): strongly cytotoxic
MIC (P. acnes ATCC 11827; Cutibacterium acnes, ATCC11827, 72 h, read-out: MIC P. acnes, P. acnes ATCC 11827, 72 h anaerobic): 12.5 to 50 mg/L (≈ 36.1 to 145 µM)
MIC P. acnes (P. acnes ATCC 11827; P. acnes ATCC 11827, 72 h anaerobic): 12.5 mg/L (≈ 36.1 µM)

Source: article PMC4494771, “Synthesis, structure, and biological activity of novel heterocyclic sulfonyl-carboximidamides” (Monatshefte Fur Chemie, 2013)
